# Patent US20220206013A1, “CYSTIC FIBROSIS URINE TEST” (Aarhus Universitet, priority 2019, published 2022)
# What was measured:
# [1] = system: Pendrin WT and KO mice; test: Secretin-induced urine alkalisation and urine HCO3− excretion in anaesthetized pendrin WT/KO mice; format: in vivo, mouse
# Method: (§1) Induction of anaesthesia was performed with i.p. injection of […] of a ketamine-xylazine mix (10 mg/ml and 1 mg/ml). An i.v. access was obtained by cannulation of one tail vein and the animals were kept in anaesthesia by a continuous rate infusion (CRI) corresponding to half of the induction dose pr. hour. Mice were infused with a solution containing 145 mM NaCl at pH 7.4 with a perfusion rate of 0.1 ml h^−1 via a syringe pump (Model 33 Twin syringe pump, Harvard Apparatus, USA).
# (§2) Bladder catheterization was introduced and urine was collected every 5 minutes. Urinary pH was measured continuously throughout the experiment by placement of a micro pH electrode (pH-200, Unisense, Aarhus, DK) in the outflow of the catheter and the reference electrode was placed into the suprapubic operation wound (see FIG. 7A). Following a 30-min. control period, mice were injected intraperitoneally with either secretin (10 μg/25 g BW) or saline.
# (§3) The urine was collected and pooled for 30 minutes allowing measurement of mean [HCO3^−] in the time periods 0-30, 30-60 and 60-90 after starting the experiment. In experiments with too low urine output, urine was pooled to allow analysis of [HCO3^−] before and after secretin application. Measurements were performed by a Corning 960 analyser (Savory et al. 1978) and calibrated to small volume samples of 50 μl or alternatively by a custom built infrared CO2-sensor based system for smaller volume samples (Trepiccione et al. 2017) (10-40 μl).
# (§4) All values are presented as mean values ±standard error of mean (SEM). Due to a low number of observations in each series, n=7 in most, we were not able to determine whether the data followed a Gaussian distribution. Therefore, two-tailed Wilcoxon matched pairs signed rank test, in paired data, and two-tailed Mann-Whitney test, in unpaired data, were performed to test for significance.
# [2] = system: global CFTR WT and KO mice; test: Secretin-induced urine alkalisation and urine HCO3− excretion in global CFTR WT/KO mice; format: in vivo, mouse
# Method: as §1, §2, §3, §4
# [3] = system: tubule specific CFTR (CFTR-TS) WT and KO mice; test: Secretin-induced urine alkalisation and urine HCO3− excretion in tubule specific CFTR WT/KO mice; format: in vivo, mouse
# Description: The Renal tubule specific CFTR (CFTRTS) KO mouse was produced in the laboratory of Dr. Kunzelmann and Dr. Schreiber in Regensburg/Germany and performed in compliance with the guidelines for the welfare of experimental animals issued by the Federal Government of Germany. C57BL6/J CFTR fl10 mice (Hodges et al. 2008) were bred in a C57Bl/6J background generated by the Cre/loxP-system with tissue specific Cre-recombinase expression from the Pax8 locus (Kos 2004; Bouchard et al. 2004).
# as §1, §2, §3, §4
# [4] = system: Pendrin WT and KO mice; test: Secretin-induced urine alkalisation and urine HCO3− excretion in anaesthetized pendrin WT/KO mice; format: in vivo, mouse; remark: listed apart in the source
# [5] = target: CFTR (Homo sapiens, UniProt P13569); test: clinical
# Method: Twelve healthy adult volunteers aged 22 to 59 years of both genders were tested. The volunteers were healthy and without any known CFTR protein mutations.
# In addition, the venous acid-base status was checked.
# The subjects then drank 200 mL of tap water. In addition, the venous acid-base status was checked.
# The subjects then drank 200 mL of tap water.
# [6] = system: CFTR wild type, CFTR knock out and pendrin knock-out mice; conditions: WT mice; gavage 60 μmoles NaHCO3/25 g bodyweight; cumulative sample after 3 hours
# Method: The experiments were performed in littermate mice bred from heterozygotes. Mice of both genders were used at an approximate age of 2 to 4 months.
# The Pendrin KO mouse was produced by insertion of a neo-cassette replacing exon 8 in the Scl26a4 gene, leading to loss of pendrin expression as described in (Everett et al. 2001). It was purchased from The Jackson Laboratory, JAX stock #018424.
# The global CFTR (CFTRG) KO mouse (CFTR S489X-; FABP-hCFTR) was purchased from The Jackson Laboratory, JAX stock #002364. This is a transgenic global CFTR KO mouse strain with expression of human CFTR (hCFTR) under the promoter activity of rat fatty acid binding protein 2, intestinal (Fabp2) promoter, which corrects the otherwise lethal intestinal phenotype in CFTR KO mice (Zhou et al. 1994).
# Awake mice (animals as described under section A.) were manually restrained and a gavage needle was inserted into their stomach. […] Mice were then placed in metabolic cages and their urine collected for further measurement.
# Urine was sampled and accumulated for 3 hr before measurement.
# [7] = target: CFTR (homozygote mutation ΔF508) (Homo sapiens, UniProt P13569, DEL508-508); test: CF urine test (oral bicarbonate gastric load) in adult CF patients, before and after CFTR modulator drug
# Method: After 1 hr. urine samples were collected and the participant drank 200 ml of tap water. One hour later, urine samples were collected again and the participant drank further 200 ml of tap water. After three hours from the baseline the final urine sample were collected and the participants drank another 200 ml of tap water.
# Nine adult CF patients aged 19 to 45 of both genders with the homozygote mutation ΔF508 were signed up for this test.
# Three of the adult CF patients were treated with Orkambi® (400 mg lumacaftor/200 mg ivacaftor twice a day) for four weeks before testing the CF patients for a second time. These included patients of both genders between the age of 19 and 45.
# Six of the adult CF patients were treated with Symkevi® (100 mg tezacaftor and 150 mg ivacaftor in the morning and 150 mg ivacaftor in the evening) for four weeks before testing the CF patients for a second time. These included patients of both genders between the age of 20 and 40.
# Five ml of urine were given into a 250 ml glass flask.
# A two-tailed paired t-test was used to test for significance. A p-value≤0.5 was chosen to represent significance.
# At t=1 hr, the subjects were to void the first sample. […] The subjects then drank 200 mL of tap water. In addition, the venous acid-base status was checked.
# At t=2 hrs, the subjects were to void the second sample. […] The subjects then drank 200 mL of tap water.
# At t=3 hrs, the subjects were to void the third sample. […] The subjects then drank 200 mL of tap water.
# [8] = both, human, in vivo, po, 79 mg/kg
# [9] = 6 CF patients, pre-symkevi, oral bicarbonate load
# Chain of CFTR (P13569 whole entry): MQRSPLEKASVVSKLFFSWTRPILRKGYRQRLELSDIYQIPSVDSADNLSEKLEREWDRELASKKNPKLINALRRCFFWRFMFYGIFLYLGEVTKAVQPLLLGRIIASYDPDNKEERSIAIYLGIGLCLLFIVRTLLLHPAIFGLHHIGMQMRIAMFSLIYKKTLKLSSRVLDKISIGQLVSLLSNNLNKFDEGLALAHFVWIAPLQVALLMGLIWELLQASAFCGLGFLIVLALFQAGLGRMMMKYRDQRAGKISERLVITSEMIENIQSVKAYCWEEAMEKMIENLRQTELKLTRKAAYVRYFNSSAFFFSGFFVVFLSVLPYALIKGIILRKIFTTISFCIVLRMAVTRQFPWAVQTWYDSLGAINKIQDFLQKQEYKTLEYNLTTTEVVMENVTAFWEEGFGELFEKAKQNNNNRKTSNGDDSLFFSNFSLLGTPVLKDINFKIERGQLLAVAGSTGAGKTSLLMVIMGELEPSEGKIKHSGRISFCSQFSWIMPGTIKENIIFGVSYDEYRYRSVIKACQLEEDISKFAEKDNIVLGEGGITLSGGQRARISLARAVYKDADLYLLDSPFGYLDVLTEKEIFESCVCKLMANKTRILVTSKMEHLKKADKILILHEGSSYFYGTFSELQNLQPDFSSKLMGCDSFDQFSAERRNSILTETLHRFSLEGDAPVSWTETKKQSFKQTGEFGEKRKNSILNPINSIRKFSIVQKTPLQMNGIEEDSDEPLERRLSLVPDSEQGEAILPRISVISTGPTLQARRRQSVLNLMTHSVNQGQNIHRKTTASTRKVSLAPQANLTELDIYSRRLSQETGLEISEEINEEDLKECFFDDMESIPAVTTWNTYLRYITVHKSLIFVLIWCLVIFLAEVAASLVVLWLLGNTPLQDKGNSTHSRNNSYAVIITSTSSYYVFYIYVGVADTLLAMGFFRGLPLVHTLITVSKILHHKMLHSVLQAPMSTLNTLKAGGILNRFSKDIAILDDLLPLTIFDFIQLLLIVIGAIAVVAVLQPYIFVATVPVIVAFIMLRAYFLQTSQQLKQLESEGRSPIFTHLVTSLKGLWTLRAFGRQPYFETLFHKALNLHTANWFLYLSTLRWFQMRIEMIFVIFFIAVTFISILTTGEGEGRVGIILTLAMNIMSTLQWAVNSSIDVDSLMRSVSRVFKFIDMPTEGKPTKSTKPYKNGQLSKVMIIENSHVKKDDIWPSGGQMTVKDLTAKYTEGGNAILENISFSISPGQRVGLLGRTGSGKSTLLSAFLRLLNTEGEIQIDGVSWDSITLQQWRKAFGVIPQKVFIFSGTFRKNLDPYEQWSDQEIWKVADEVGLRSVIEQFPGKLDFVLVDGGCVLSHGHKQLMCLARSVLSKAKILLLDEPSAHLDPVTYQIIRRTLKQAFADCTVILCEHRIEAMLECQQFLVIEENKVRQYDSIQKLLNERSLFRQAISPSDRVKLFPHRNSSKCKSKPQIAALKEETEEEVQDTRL
# Chain of CFTR (homozygote mutation ΔF508) (P13569 with tags, fused parts or gaps DEL508-508): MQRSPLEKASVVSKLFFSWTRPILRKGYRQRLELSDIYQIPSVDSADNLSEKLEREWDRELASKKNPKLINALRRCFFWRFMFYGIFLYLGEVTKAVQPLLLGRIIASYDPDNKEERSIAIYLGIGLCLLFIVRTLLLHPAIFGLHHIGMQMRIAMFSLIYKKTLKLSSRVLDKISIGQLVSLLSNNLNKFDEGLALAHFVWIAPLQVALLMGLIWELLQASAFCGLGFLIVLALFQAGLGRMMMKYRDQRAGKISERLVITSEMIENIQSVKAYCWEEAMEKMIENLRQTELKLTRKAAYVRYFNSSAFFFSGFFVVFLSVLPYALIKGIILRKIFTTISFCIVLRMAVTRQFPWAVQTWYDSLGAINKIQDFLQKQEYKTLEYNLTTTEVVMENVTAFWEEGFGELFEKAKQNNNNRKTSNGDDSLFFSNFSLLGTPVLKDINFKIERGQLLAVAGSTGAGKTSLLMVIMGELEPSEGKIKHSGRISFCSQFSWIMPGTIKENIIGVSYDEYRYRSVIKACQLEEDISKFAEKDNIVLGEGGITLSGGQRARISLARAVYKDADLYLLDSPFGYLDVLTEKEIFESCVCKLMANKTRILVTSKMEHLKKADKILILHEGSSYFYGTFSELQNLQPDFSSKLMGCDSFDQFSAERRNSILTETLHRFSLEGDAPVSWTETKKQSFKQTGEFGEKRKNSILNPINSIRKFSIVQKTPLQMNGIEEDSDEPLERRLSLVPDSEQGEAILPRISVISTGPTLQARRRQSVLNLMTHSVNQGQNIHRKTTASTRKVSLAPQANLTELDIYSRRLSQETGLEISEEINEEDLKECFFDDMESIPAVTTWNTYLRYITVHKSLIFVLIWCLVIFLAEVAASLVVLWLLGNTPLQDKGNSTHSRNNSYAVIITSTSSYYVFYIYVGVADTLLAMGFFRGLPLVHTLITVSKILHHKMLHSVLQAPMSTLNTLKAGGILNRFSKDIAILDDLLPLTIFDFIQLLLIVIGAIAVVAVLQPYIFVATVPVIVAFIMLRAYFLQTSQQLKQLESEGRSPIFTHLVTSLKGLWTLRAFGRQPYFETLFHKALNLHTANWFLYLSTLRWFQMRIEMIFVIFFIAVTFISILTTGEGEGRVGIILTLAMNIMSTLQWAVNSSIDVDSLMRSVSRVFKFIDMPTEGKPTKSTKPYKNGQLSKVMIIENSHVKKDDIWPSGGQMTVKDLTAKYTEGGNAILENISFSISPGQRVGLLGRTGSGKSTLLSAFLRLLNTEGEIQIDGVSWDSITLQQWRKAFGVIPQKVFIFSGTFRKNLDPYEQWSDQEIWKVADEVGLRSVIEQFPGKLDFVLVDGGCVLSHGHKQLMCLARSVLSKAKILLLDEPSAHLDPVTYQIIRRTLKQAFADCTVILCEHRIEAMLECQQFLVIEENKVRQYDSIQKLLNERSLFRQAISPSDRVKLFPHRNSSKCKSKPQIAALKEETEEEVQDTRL
compound,measurement,setting,value
secretin,pHu alkalisation,"[1]; pendrin KO mice, 10 μg/25 g BW i.p., FIG. 9B",no significant pHu alkalisations
same,urinary HCO3− excretion vs vehicle,"[1]; pendrin KO mice, data not shown",No differences
same,urinary [HCO3−] vs vehicle,"[1]; pendrin KO mice, n=7, FIG. 9D",No differences
same,late pHu effect,"[1]; pendrin KO mice, starting some 20 minutes post-injection",urinary acidification
same,peak mean urinary alkalisation,"[1]; pendrin WT mice, 10 μg/25 g BW i.p., n=7, FIG. 9A",0.397±0.1 pH units
same,peak pHu increase,"[1]; pendrin WT mice, 10 μg/25 g BW secretin i.p., FIG. 8C",~0.38 units
same,urinary [HCO3−],"[1]; pendrin WT mice, 60 minutes following injection, vehicle 0.1697 ±0.1 mM, FIG. 9C",1.08 ± 0.3 mM
same,urine HCO3− excretion rate,"[1]; pendrin WT mice, 60 minutes post secretin injection, vehicle 1.18±0.57",5.61±2.06 nmol/h/g BW
same,HCO3− excretion rate and urine [HCO3−] vs starting or control,"[2]; global CFTR KO mice, at any point during the experiment, FIG. 10D",No significant differences
same,peak difference of pHu vs pH prior to treatment,"[2]; global CFTR KO mice, peak 20 min post secretin, n=7, not differing from vehicle treated KO mice",0.13 pH units
same,peak mean urinary alkalisation,"[2]; global CFTR WT mice, 10 μg/25 g BW i.p., n=6, FIG. 10A",0.53±0.24 pH units
same,urinary [HCO3−] increase vs control group (Δ30 minutes),"[2]; global CFTR WT mice, FIG. 10C",3.02 ± 1.06 mM
same,ΔHCO3− excretion rate vs control,"[2]; global CFTR WT mice, after 60 min, not reaching significance (p=0.09)",5.55±3.25 nmol/h/g BW
same,pHu effect vs control experiments,"[3]; CFTR-TS KO mice, FIG. 11B",no significant effect
same,urine [HCO3−] and urine HCO3− excretion rate,[3]; CFTRTS KO mice,No significant secretin-induced differences
same,peak mean urinary alkalisation,"[3]; tubule specific CFTR WT mice, 10 μg/25 g BW i.p., n=7, FIG. 11A",0.6518±0.11
same,"urine HCO3− excretion rate, mean difference vs baseline","[3]; tubule specific CFTR WT mice, 60 minutes after secretin treatment, data not shown",5.623 ± 2.2 nmol/h/kg
same,urine [HCO3−] change after secretin administration,"[3]; tubule specific CFTR WT mice, highest in first 30 minutes",pronounced increase
same,pHu change,[4]; dose of 0.1 μg i.p.,significant increase
same,pHu change with dose,"[4]; doses of 1, 5 and 10 μg i.p.",increasing pHu alkalisations
"O=C(O)O [bicarbonate, NaHCO3]",Cmax,[5]; [8],45000 to 65000 µM
same,Tmax,[5]; [8],2 h
same,AUC0-3 of excreted bicarbonate,"[5]; healthy controls, oral 79 mg/kg BW NaHCO3, FIG. 5E",85-123 mmol bicarbonate *t/L
same,urine bicarbonate concentration and urine pH,[6],found to increase
same,AUC0-3 of excreted bicarbonate,[7]; [9],22-45 mmol bicarbonate*t/L
same,peak value of urine bicarbonate (t=2 hrs),[7]; [9],11 to 28 mM
same,AUC0-3 of excreted bicarbonate,"[7]; CF patients before treatment with Orkambi, oral bicarbonate load",14-58 mmol bicarbonate *t/L
same,Cmax,[7]; [8],14000 to 28000 µM
same,Tmax,"[7]; both, human, in vivo, po, 79 mg/kg BW",2 h
